Results taken from patent publication US4748251A, “7-n-aminomethylenemitomycin derivative” (priority 1985, dated 1988).
Converted amounts (≈) assume the structure as drawn. Like-named read-outs stand apart in the source and are kept apart here.

Assays:
[1] = test system: P-388 leukemia resistant to mitomycin C; experiment: Anti-tumor activity against P-388 leukemia resistant to mitomycin C; format: in vivo, mouse (CDF1); settings: for maximum increased life span: P-388 resistant to mitomycin C, Table 4, maximum over doses; for ILS %: i.p. once
Procedure: (§1) Ascites was sampled from the abdominal cavity of tumor-bearing mice (DBA/2) 7 days after transplantation of P-388 ascitic tumor. The number of the P-388 cells in the ascites was counted. A suspension of the tumor cells of 5×10^6 /ml was prepared using sterilized physiological saline, and 0.2 ml of the suspension (containing 1×10^6 cells) was intraperitoneally transplanted to CDF1 mice weighing 20 to 25 g. Twenty-four hours after the transplantation of the tumor, a test compound was intraperitoneally administered once to groups of the CDF1 mice, each group consisting of 6 mice. […] The effect of the compound was evaluated by a ratio of a mean survival days of the group treated with the compound to a mean survival days of the control group (untreated group) after 33 days of observation (Increased Life Span, ILS %).

[2] = test system: tumor; experiment: Anti-tumor activity of Compound A stated in words (GB 2121796A / inventors' own observation); settings: noted by the present inventors
[3] = test system: tumor; settings: reported in GB 2121796A; cited from earlier work
[4] = test system: leukemia P-388; experiment: Anti-tumor activity against leukemia P-388; format: in vivo, mouse (CDF1); settings: for maximum increased life span: P-388, Table 3, maximum over doses; for ILS %: i.p. once, 33 days
Procedure: as §1

[5] = test system: Shigella sonnei ATCC 9290; experiment: Antibacterial activity, agar dilution method, pH 7.0 (SS); format: cell-based
Procedure: (§2) Antibacterial activities of some compounds covered by the present invention against various bacteria are shown by the minimum growth inhibitory concentration (μg/ml) in Table 1. The minimum growth inhibitory concentration was measured at pH 7.0 according to the agar dilution method. In the table, bacteria are indicated by the following letters.
SS: Shigella sonnei ATCC 9290

[6] = test system: Bacillus subtilis 10707; experiment: Antibacterial activity, agar dilution method, pH 7.0 (BS); format: cell-based
Procedure: as §2
BS: Bacillus subtilis 10707

[7] = test system: Klebsiella pneumoniae ATCC 10031; experiment: microbe, parasite or virus in culture; format: cell-based; settings: ATCC10031, pH 7, read-out: minimum growth inhibitory concentration
Procedure: The minimum growth inhibitory concentration was measured at pH 7.0 according to the agar dilution method. In the table, bacteria are indicated by the following letters.
KP: Klebsiella pneumoniae ATCC 10031

[8] = test system: Streptococcus faecalis ATCC 10541; experiment: Antibacterial activity, agar dilution method, pH 7.0 (SF); format: cell-based; settings: Enterococcus faecalis
Procedure: as §2
SF: Streptococcus faecalis ATCC 10541

[9] = test system: Staphylococcus aureus ATCC 6538P; experiment: Antibacterial activity, agar dilution method, pH 7.0 (SA); format: cell-based; settings: ATCC6538P
Procedure: as §2
SA: Staphylococcus aureus ATCC 6538P

[10] = test system: Proteus vulgalis ATCC 6897; experiment: Antibacterial activity, agar dilution method, pH 7.0 (PV); format: cell-based
Procedure: as §2
PV: Proteus vulgalis ATCC 6897

[11] = test system: Sarcoma 180 solid tumor; experiment: Anti-tumor activity against Sarcoma 180 solid tumor in mice; format: in vivo, mouse (ddY strain); settings: Mus musculus, Sarcoma-180, ip, 168 h; dose reducing tumor volume to 50% of control; intraperitoneal 24 hours after implantation; tumor measured 7 days after implantation
From the text: (§3) Taking some of the compounds falling within the present invention as examples, anti-tumor activity (ED50) against Sarcoma 180 solid tumor and acute toxicity (LD50) as well as effect on peripheral leucocytes number (WBC4000) are shown in Table 2.
(1) Effect against Sarcoma 180 solid tumor cells:
5×10^6 cells of Sarcoma 180 solid tumor were implanted into ddY mice. 7 days later, ascites cells were sampled. The cells were washed once with a sterilized physiological solution of sodium chloride and were used to prepare a cell supspension containing 5×10^7 cells per ml. On each occasion, 0.1 ml of the cell suspension was subcutaneously implanted into the right axilla of a male mouse (ddY strain; body weight 20±2 g). The test compound was dissolved in a physiological solution of sodium chloride with or without addition of Tween 80 and was administered intraperitoneally into each mouse of a group consisting of 5 mice at a dose of 0.1-0.2 ml, 24 hours after the implantation of the tumor cells.
The anti-tumor activity was determined in the following manner. 7 days after the implantation, the major axis (a) and the minor axis (b) of the tumor were measured to calculate a value of "a×b^2 /2" which corresponds to the volume of the tumor. The anti-tumor activity was expressed by the ratio of the volume of the tumors (T) of the group of animals administered with the test compound to the corresponding volume of tumors (C) of the untreated animals.
(2) Determination of ED50 :
On graph paper, T/C (the ratio of the volume of tumors of treated animals to that of control animals) was indicated by an arithmetic scale on the longitudinal axis and the administered amount of the test compound was indicated by a logarithmic scale on the lateral axis. The relationship between the dose and T/C was shown by a straight line determined by the method of least squares, from which a dose corresponding to T/C of 0.5 was obtained.

[12] = Acute toxicity in mice; design: species or system mouse (ddY strain); settings: mouse, in vivo, ip; intraperitoneally once, ddY mice, 14 days observation, Beherns Kaerber's method
Procedure: as §3
Each animal of the test group consisting of 5 ddY mice was administered intraperitoneally once with a test compound. […] The LD50 was determined by Beherns Kaerber's method.

[13] = test system: peripheral leucocytes; experiment: Effect on the peripheral leucocytes number in tumor-carrying mice; format: in vivo, mouse (ddY strain); settings: dose which reduces peripheral leucocytes number to 4000/mm^3; intraperitoneal, blood 4 days later
From the text: as §3
WBC4000 indicates the dose of a substance which reduces the peripheral leucocytes number to 4000/mm^3.
(4) Effect on the peripheral leucocytes number:
Sarcoma 180 solid tumor cells (5×10^6) were subcutaneously implanted into the right axilla of each mouse (body weight 20±2 g) of a group consisting of 5 male mice (ddY strain). 24 hours after implantation,a test compound was intraperitoneally administered to each animal. 4 days later, blood (each 0.02 ml) was collected from the suborbital plexus vein of each tumor-carrying animal. The collected sample of blood was dispersed in 9.98 ml of Cell-Kit Seven solution. One drop of saponin solution was added to the sample to dissolve erythrocytes and then a microcell counter was used to count the number of leucocytes. On graph paper, the number of leucocytes was indicated on the y-axis by an arithmetic scale and the dose of the test compound was indicated on the x-axis by a logarithmic scale. The relationship between the number of peripheral leucocytes and the dosage of the test compound was plotted and the dosage corresponding to 4000 peripheral leucocytes/mm^3 (about half the number of leucocytes of normal mice) was obtained. This value is denoted in Table 2 by WBC4000.

[14] = ATCC9290, pH 7, read-out: minimum growth inhibitory concentration
[15] = Bacillus subtilis, 10707, pH 7, read-out: minimum growth inhibitory concentration
[16] = ATCC10541, pH 7, read-out: minimum growth inhibitory concentration
[17] = pH 7, read-out: minimum growth inhibitory concentration

Row | SMILES | MIC [5, 14] | MIC [6, 15] | MIC [7] | MIC [8, 16] | MIC [9, 17] | MIC [10, 17] | ED50 [11] | LD50 at 336 h [12] | WEC4000 [13] | further results
1 | CO[C@@]12[C@H](COC(N)=O)C3=C(C(=O)C(C)=C(N=CN(C)C)C3=O)N1C[C@@H]1N[C@@H]12 [Compound A, 7-N-Dimethylaminomethylenemitomycin C] | – | – | – | – | – | – | – | – | – | maximum increased life span [1]: 73%; ILS % ([1]; dose 0.25 mg/kg): 47%; ILS % ([1]; dose 0.5 mg/kg): 73%; ILS % ([1]; dose 1.0 mg/kg): 68%; ILS % ([1]; dose 2.0 mg/kg): 47%; ILS % ([1]; dose 4.0 mg/kg): -41%; ILS % ([1]; dose 6.0 mg/kg): -47%; anti-tumor activity [2]: excellent anti-tumor activity; anti-tumor activity [3]: particularly excellent anti-tumor activity; maximum increased life span [4]: 75%; ILS % ([4]; dose 0.0625 mg/kg): 15%; ILS % ([4]; dose 0.125 mg/kg): 48%; ILS % ([4]; dose 0.25 mg/kg): 45%; ILS % ([4]; dose 0.5 mg/kg): 63%; ILS % ([4]; dose 1.0 mg/kg): 68%; ILS % ([4]; dose 2.0 mg/kg): 75%; ILS % ([4]; dose 4.0 mg/kg): 20%
2 | C=C1C2=C(C(=O)C(C)=C(N=CN(C)C)C2=O)N2C[C@@H]3N[C@@H]3[C@]12OC [Compound 2, 1a-Demethyl-7-N-dimethylaminoethylenemitomycin G] | 20 µg/mL (≈ 60.9 µM) | 0.078 µg/mL (≈ 0.238 µM) | 10 µg/mL (≈ 30.5 µM) | 1.3 µg/mL (≈ 3.96 µM) | 0.31 µg/mL (≈ 0.944 µM) | 10 µg/mL (≈ 30.5 µM) | – | – | – | –
3 | CC1=C(N=CN(C)C)C(=O)C2=C(C1=O)N1C[C@H]3[C@H](N3C)[C@]1(O)[C@H]2COC(N)=O (stereo partly drawn) [Compound 3a, 7-N-Dimethylaminomethylenemitomycin D] | > 20 µg/mL | 2.5 µg/mL (≈ 6.42 µM) | 2.5 µg/mL (≈ 6.42 µM) | 5 µg/mL (≈ 12.8 µM) | 10 µg/mL (≈ 25.7 µM) | 20 µg/mL (≈ 51.4 µM) | 3.9 mg/kg | 8.3 mg/kg | 4.3 mg/kg | maximum increased life span [1]: 143%; ILS % ([1]; dose 1.0 mg/kg): 28%; ILS % ([1]; dose 2.0 mg/kg): 103%; ILS % ([1]; dose 4.0 mg/kg): 143%; ILS % ([1]; dose 6.0 mg/kg): 58%; ILS % ([1]; dose 8.0 mg/kg): 51%; maximum increased life span [4]: 213%; ILS % ([4]; dose 0.25 mg/kg): 28%; ILS % ([4]; dose 0.5 mg/kg): 53%; ILS % ([4]; dose 1.0 mg/kg): 58%; ILS % ([4]; dose 2.0 mg/kg): 58%; ILS % ([4]; dose 4.0 mg/kg): 145%; ILS % ([4]; dose 6.0 mg/kg): 213%; ILS % ([4]; dose 8.0 mg/kg): 98%; anti-tumor activity against leukemia P-388 compared with Compound A ([4]; in words, versus Compound A): more excellent anti-tumor activity than Compound A
4 | C=C1C2=C(C(=O)C(C)=C(N=CN(C)C)C2=O)N2C[C@H]3[C@H](N3C)[C@]12O (stereo partly drawn) [Compound 1, 9a-O-Demethyl-7-N-dimethylaminomethylenemitomycin G] | 10 µg/mL (≈ 30.5 µM) | 0.078 µg/mL (≈ 0.238 µM) | 10 µg/mL (≈ 30.5 µM) | 0.078 µg/mL (≈ 0.238 µM) | 0.078 µg/mL (≈ 0.238 µM) | 10 µg/mL (≈ 30.5 µM) | – | – | – | ILS ([4]; dose 10 mg/kg, similar experiment): 83%
5 | CO[C@]12[C@@H]3[C@H](CN1C1=C(C(=O)C(N=CN(C)C)=C(C)C1=O)[C@@H]2COC(N)=O)N3C (stereo partly drawn) [Compound 4a, 7-N-Dimethylaminomethylenemitomycin E] | 10 µg/mL (≈ 24.8 µM) | 0.16 µg/mL (≈ 0.397 µM) | 2.5 µg/mL (≈ 6.2 µM) | 0.63 µg/mL (≈ 1.56 µM) | 0.63 µg/mL (≈ 1.56 µM) | 20 µg/mL (≈ 49.6 µM) | – | – | – | –
6 | CC1=C(N=CN(C)C)C(=O)C2=C(C1=O)N1C[C@H]3[C@H](N3C)[C@]1(O)[C@H]2COC(=O)N=CN(C)C (stereo partly drawn) [Compound 3b, 7-N,N^10-bis(dimethylaminomethylene)mitomycin D] | – | – | – | – | – | – | 20.9 mg/kg | 26.3 mg/kg | 18.7 mg/kg | –
7 | CO[C@@]12[C@H](COC(N)=O)C3=C(C(=O)C(C)=C(N)C3=O)N1C[C@@H]1N[C@@H]12 [MM-C, mitomycin C, reference compound] | – | – | – | – | – | – | – | – | – | MIC ([5]; ATCC9290, SS, pH 7.0, agar dilution, read-out: minimum growth inhibitory concentration): 2.5 µg/mL (≈ 7.48 µM); MIC ([6]; Bacillus subtilis, 10707, BS, pH 7.0, agar dilution, read-out: minimum growth inhibitory concentration): 0.04 µg/mL (≈ 0.12 µM); MIC ([8]; ATCC10541, SF, pH 7.0, agar dilution, read-out: minimum growth inhibitory concentration): 0.31 µg/mL (≈ 0.927 µM); MIC ([9]; SA, pH 7.0, agar dilution, read-out: minimum growth inhibitory concentration): 0.16 µg/mL (≈ 0.479 µM); MIC ([10]; PV, pH 7.0, agar dilution, read-out: minimum growth inhibitory concentration): 0.08 µg/mL (≈ 0.239 µM)
8 | CO[C@]12[C@@H]3[C@H](CN1C1=C(C(=O)C(N=CN(C)C)=C(C)C1=O)[C@@H]2COC(=O)N=CN(C)C)N3C (stereo partly drawn) [Compound 4b, 7-N,N^10-bis(dimethylaminomethylene)mitomycin E] | – | 2.5 µg/mL (≈ 5.45 µM) | 40 µg/mL (≈ 87.2 µM) | 5 µg/mL (≈ 10.9 µM) | 10 µg/mL (≈ 21.8 µM) | – | – | – | – | –
9 | CC1=C(N=CN(C)C)C(=O)C2=C(C1=O)N1C[C@H]3[C@H](N3C)[C@]1(O)[C@@H]2COC(N)=O (stereo partly drawn) [Compound 6c, 9-Epi-7-N-dimethylaminomethylenemitomycin D] | 40 µg/mL (≈ 103 µM) | 0.63 µg/mL (≈ 1.62 µM) | 0.63 µg/mL (≈ 1.62 µM) | 1.3 µg/mL (≈ 3.34 µM) | 2.5 µg/mL (≈ 6.42 µM) | 5 µg/mL (≈ 12.8 µM) | 14 mg/kg | 9.4 mg/kg | 11.2 mg/kg | –
